# Assays:
# Human ACC1 = molecular target: T1, Human ACC1 (Homo sapiens, UniProt Q13085); assay: Measurement of ACC1 inhibitory activity (Malonyl-CoA produced, RapidFire-mass spectrometry); type: biochemical; settings: 10 μM of the test compound; read-out: ACC1 inhibitory rate (%) at 10 μM
# T1 construct: His6 (from vector pFAST-BacHTc; purified on Ni-NTA) (N); made in house; host or cells: SF-9 insect cells, recombinant baculovirus BAC-ACC1
# Experimental: (1) Cloning of Human ACC1 Gene and Preparation of Recombinant Baculovirus
# Human ACC1 gene was cloned by PCR using a human liver cDNA library (Clontech) as a template and Primer 1 and Primer 2 shown below. Primer 1 and Primer 2 were prepared by adding SalI, NotI restriction enzyme recognition sequences based on the information of the base sequence of human ACC1 gene (Genbank Accession U19822).
# PCR was performed using Pyrobest DNA polymerase (TAKARA BIO INC.). The obtained PCR product was cloned to pT7 Blue vector (Novagen) and after confirmation of the base sequence, digested with restriction enzymes SalI and […]. The obtained DNA fragment was inserted into pFAST-BacHTc (Invitrogen) digested with restriction enzymes SalI and […] to give expression plasmid ACC1/pFAST-BacHTc.
# Using the expression plasmid ACC1/pFAST-BacHTc and BAC-TO-BAC Baculovirus Expression System (Invitrogen), virus stock BAC-ACC1 of recombinant Baculovirus was prepared.
# (2) Preparation of ACC1 Protein
# SF-9 cells (Invitrogen) were inoculated to a medium (10 L) for insect cells (Sf-900IISFM medium (Invitrogen) containing 5% fetal bovine serum (Trace), 50 mg/L Gentamicin (Wako Pure Chemical Industries, Ltd.) and 0.1% Pluronic F-68 (Invitrogen)) at 1.0×10^6 cells/mL, and cultured with shaking in Wave Bioreactor (GE Healthcare) at 27° C., 20 rpm, rocking angle 100, oxygen concentration 30%.
# On day 2 of the culture, recombinant Baculovirus BAC-ACC1 was added, and the cells were cultured for 3 days. The culture medium was centrifuged at 4000×g for 10 min to give virus-infected cells. The cells were washed with phosphate buffered saline (Invitrogen) and centrifuged under the same conditions. The obtained cells were cryopreserved at −80° C.
# The cryopreserved cells were thawed in ice, and suspended in 800 mL of 25 mM HEPES buffer (pH 7.5) containing 10% Glycerol, 0.3 M NaCl, 1 mM EDTA, 25 mM Sodium β-Glycerophosphate and 1 mM Sodium Orthovanadate, and supplemented with Complete Protease Inhibitor (Roche). The obtained suspension was homogenized two times in a polytron homogenizer (Kinematica) at 20,000 rpm for 20 sec. The obtained cell disruption solution was clarified by centrifugation at 186,000×g for 60 min, and the supernatant was passed through Ni-NTA Superflow Cartridges (5 mL) (QUIAGEN). Furthermore, it was washed with 25 mM HEPES buffer (pH 7.5) containing 20 mM Imidazole and 0.3 M NaCl, and eluted with 25 mM HEPES buffer (pH 7.5) containing 250 mM Imidazol and 0.3 M NaCl. The eluate was concentrated by Amicon Ultra-15 (Nihon Millipore K.K.) having a fraction molecular weight of 50K. The obtained concentrate was subjected to gel filtration with 50 mM HEPES buffer (pH 7.5) containing 10 mM MgCl2, 2 mM dithiothreitol, 10 mM tripotassium citrate and 0.3 M NaCl by using HiLoad 26/60 Superdex200 prep grade gel filtration column (GE Healthcare) to give ACC1. The obtained ACC1 was cryopreserved at −80° C.
# (3) Measurement of ACC1 Inhibitory Activity
# ACC1 obtained in the above-mentioned (2) was diluted with an enzyme reaction buffer (50 mM HEPES (pH 7.5), 10 mM MgCl2, 10 mM Tripottasium Citrate, 2 mM Dithiothreitol, 0.001% Fatty acid free BSA) to a concentration of 0.2 μg/ml, and the mixture was added to each well of a 384 well assay plate by 10 μl. A test compound dissolved in dimethyl sulfoxide (DMSO) was diluted with an enzyme reaction buffer, and the resulting solution (5 μl) was added to each well. The mixture was incubated at room temperature for 60 min. Then, a substrate solution (50 mM KHCO3, 200 μM ATP, 200 μM Acetyl-CoA, 5 μl) was added to each well, and the mixture was reacted at room temperature for 30 min. The reaction was quenched by adding a reaction quenching liquid (1.3% formic acid, 0.2 μM Malonyl-^13C3-CoA) by 60 μL each to the obtained reaction mixtures (test compound addition group).
# In addition, a reaction was performed in the same manner as above and without adding the test compound (test compound non-addition group). […]
# HCT116 cells = assay: Growth inhibitory activity on HCT116 cell (CellTiter-Glo); type: cell-based; settings: Homo sapiens, HCT-116, 72 h; test compound 1 μM, 3 days; read-out: HCT116 cell proliferation inhibitory rate (%) at 1 μM
# Experimental: The growth inhibitory activity of the compound on HCT116 cell was evaluated by the following method.
# HCT116 cells were seeded in a 384 well blackplate at 900 cells/[…]/well, and maintained in an assay medium (RPMI medium (Wako) containing 2% fetal bovine serum, 50 Unit/mL penicillin and […] streptomycin (Invitrogen)). The next day, a test compound dissolved in dimethyl sulfoxide (DMSO) was diluted with the assay medium, and the obtained compound solution was added by […] to each well of a plate containing HCT116 cells, and incubated at 37° C., 5% CO2 (test compound addition group).
# A similar reaction was performed without adding a test compound (test compound non-addition group).
# Furthermore, a similar reaction was performed under the conditions without adding HCT116 cell and a test compound (control group).
# After 3 days, […] of a CellTiter-Glo reagent (Promega KK) was added to the well, and the mixture was stirred for 10 min. Thereafter, the luminescence value of each well was measured by the EnVision™ multilabel counter (Perkin Elmer Inc.).
# The HCT116 cell proliferation inhibitory rate (%) of the test compound was determined by the following calculation formula. (1−(luminescence of test compound addition group−luminescence of control group)÷(luminescence of test compound non-addition group−luminescence of control group))×100
# The HCT116 cell proliferation inhibitory rates (%) of the test compound (1 μM) are shown below.
Structure (SMILES),inhibition at 10 µM (Human ACC1),inhibition at 1 µM (HCT116 cells)
"CC(=O)N[C@@H](C)COc1cnc(-c2ccc(Oc3cccc(OCC4CC4)c3)nc2)o1 [Example 99, N-((2S)-1-((2-(6-(3-(cyclopropylmethoxy)phenoxy)pyridin-3-yl)-1,3-oxazol-5-yl)oxy)propan-2-yl)acetamide]",100%,–
"CC(=O)NC(C)CC(=O)c1cnc(-c2ccc(Oc3cccc(OCC4CC4)c3)cc2)o1 (stereo not drawn) [Example 64, N-(4-(2-(4-(3-(cyclopropylmethoxy)phenoxy)phenyl)-1,3-oxazol-5-yl)-4-oxobutan-2-yl)acetamide]",99%,35%
"CC(=O)NC(C)c1ccc(OCc2c(F)cc(Oc3cccc(OCC4CC4)c3)cc2F)nc1 (stereo not drawn) [Example 68, N-(1-(6-((4-(3-(cyclopropylmethoxy)phenoxy)-2,6-difluorobenzyl)oxy)pyridin-3-yl)ethyl)acetamide]",96%,25%
"CC(=O)NC(C)c1ccc(OCc2ccc(Oc3cccc(OCC4CC4)c3)cc2F)cc1 (stereo not drawn) [Example 19, N-(1-(4-((4-(3-(cyclopropylmethoxy)phenoxy)-2-fluorobenzyl)oxy)phenyl)ethyl)acetamide]",83%,15%
"CC(=O)NC(C)c1cnc(OCc2c(F)cc(Oc3cccc(OCC4CC4)c3)cc2F)cn1 (stereo not drawn) [Example 43, N-(1-(5-((4-(3-(cyclopropylmethoxy)phenoxy)-2,6-difluorobenzyl)oxy)pyrazin-2-yl)ethyl)acetamide]",94%,–
"CC(=O)NC(C)c1ccc(OCc2c(F)cc(Oc3cccc(OCC4CC4)c3)cc2F)cn1 (stereo not drawn) [Example 69, N-(1-(5-((4-(3-(cyclopropylmethoxy)phenoxy)-2,6-difluorobenzyl)oxy)pyridin-2-yl)ethyl)acetamide]",96%,28%
"CC(=O)N[C@@H](C)COc1cc(-c2ccc(Oc3cccc(OCC4CC4)c3)cc2)no1 [Example 67, N-((2S)-1-((3-(4-(3-(cyclopropylmethoxy)phenoxy)phenyl)-1,2-oxazol-5-yl)oxy)propan-2-yl)acetamide]",92%,29%
"CC(=O)NC(C)CCc1ccn(-c2ccc(Oc3cccc(OCC4CC4)c3)cc2)n1 (stereo not drawn) [Example 48, N-(4-(1-(4-(3-(cyclopropylmethoxy)phenoxy)phenyl)-1H-pyrazol-3-yl)butan-2-yl)acetamide]",96%,14%
"CC(=O)N[C@@H](C)COc1cnc(-c2ccc(Oc3cccc(OCC4CC4)c3)cc2)o1 [Example 30, N-((2S)-1-((2-(4-(3-(cyclopropylmethoxy)phenoxy)phenyl)-1,3-oxazol-5-yl)oxy)propan-2-yl)acetamide]",99%,28%
"CC(=O)NC(C)CC(=O)c1cnc(-c2ccc(Oc3cccc(OCC4CC4)c3)nc2)o1 (stereo not drawn) [Example 105, N-(4-(2-(6-(3-(cyclopropylmethoxy)phenoxy)pyridin-3-yl)-1,3-oxazol-5-yl)-4-oxobutan-2-yl)acetamide]",100%,–
"CC(=O)NC(C)CCc1coc(-c2ccc(Oc3cccc(OCC4CC4)c3)cc2)n1 (stereo not drawn) [Example 83, N-(4-(2-(4-(3-(cyclopropylmethoxy)phenoxy)phenyl)-1,3-oxazol-4-yl)butan-2-yl)acetamide]",97%,28%
"CC(=O)NC(C)CC(=O)c1cnn(-c2ccc(Oc3cccc(OCC4CC4)c3)nc2)c1 (stereo not drawn) [Example 103, N-(4-(1-(6-(3-(cyclopropylmethoxy)phenoxy)pyridin-3-yl)-1H-pyrazol-4-yl)-4-oxobutan-2-yl)acetamide]",98%,–
"CC(=O)NC(C)CCc1cnc(-c2ccc(Oc3cccc(OCC4CC4)c3)cc2)o1 (stereo not drawn) [Example 32, N-(4-(2-(4-(3-(cyclopropylmethoxy)phenoxy)phenyl)-1,3-oxazol-5-yl)butan-2-yl)acetamide]",97%,30%
"CC(=O)NC(C)c1ccc(OCc2ccc(Oc3cccc(OCC4CC4)c3)cc2F)nc1 (stereo not drawn) [Example 42, N-(1-(6-((4-(3-(cyclopropylmethoxy)phenoxy)-2-fluorobenzyl)oxy)pyridin-3-yl)ethyl)acetamide]",85%,10%
"C[C@@H](COc1cnc(-c2ccc(Oc3cccc(OCC4CC4)c3)nc2)o1)NC(N)=O [Example 101, 1-((2S)-1-((2-(6-(3-(cyclopropylmethoxy)phenoxy)pyridin-3-yl)-1,3-oxazol-5-yl)oxy)propan-2-yl)urea]",98%,–
"CC(=O)NC(C)c1ccc(OCc2c(F)cc(Oc3cccc(OCC4CC4)c3)cc2F)nn1 (stereo not drawn) [Example 78, N-(1-(6-((4-(3-(cyclopropylmethoxy)phenoxy)-2,6-difluorobenzyl)oxy)pyridazin-3-yl)ethyl)acetamide]",97%,12%
"C[C@@H](COc1cnc(-c2ccc(Oc3cccc(OCC4CC4)c3)cn2)o1)NC(N)=O [Example 104, 1-((2S)-1-((2-(5-(3-(cyclopropylmethoxy)phenoxy)pyridin-2-yl)-1,3-oxazol-5-yl)oxy)propan-2-yl)urea]",95%,–
"CC(=O)N[C@@H](C)COc1cnc(-c2cnc(Oc3cccc(OCC4CC4)c3)cc2C)o1 [Example 106, N-((2S)-1-((2-(6-(3-(cyclopropylmethoxy)phenoxy)-4-methylpyridin-3-yl)-1,3-oxazol-5-yl)oxy)propan-2-yl)acetamide]",98%,–
"CC(=O)NC(C)c1cnc(OCc2c(F)cc(Oc3cccc(OCC4CC4)c3)cc2F)c(F)c1 (stereo not drawn) [Example 73, N-(1-(6-((4-(3-(cyclopropylmethoxy)phenoxy)-2,6-difluorobenzyl)oxy)-5-fluoropyridin-3-yl)ethyl)acetamide]",98%,31%
"CC(=O)NC(C)c1cnc(OCc2ccc(Oc3cccc(OCC4CC4)c3)cc2F)cn1 (stereo not drawn) [Example 35, N-(1-(5-((4-(3-(cyclopropylmethoxy)phenoxy)-2-fluorobenzyl)oxy)pyrazin-2-yl)ethyl)acetamide]",78%,–
"CC(=O)N[C@@H](C)COc1cnc(-c2ccc(Oc3cccc(OCC4CC4)c3)cn2)o1 [Example 102, N-((2S)-1-((2-(5-(3-(cyclopropylmethoxy)phenoxy)pyridin-2-yl)-1,3-oxazol-5-yl)oxy)propan-2-yl)acetamide]",100%,–

# From patent publication US10252997B2, “Monocyclic compound” (Takeda Pharmaceutical Company Limited, priority 2015, dated 2019)
